# Assay results taken from US20240058311A1, “USE OF SMO INHIBITOR IN PREPARATION OF DRUG FOR PREVENTING, DELAYING OR A[…] STENOSIS OF ART[…]” (JINAN UNIVERSITY, priority 2022, published 2024).
# Key:
# HUVECs [1] = assay: Lactate dehydrogenase (LDH) assay in HUVECs under high glucose; type: cell-based, human; conditions: HG, after intervention with Cyc (FIG. 6C)
# Description: HUVECs were inoculated in a 6-well plate (1×10^6 cells/well) and treated in different glucose conditions. After 48 hours of culture, the supernatant was collected, and the LDH activity was analyzed using an LDH cytotoxicity assay kit.
# HUVECs [2] = assay: Apoptosis detection (AnnexinV-FITC/PI) in HUVECs under high glucose; type: cell-based, human; conditions: high glucose conditions (FIG. 6D)
# Description: HUVECs were inoculated into a 6-well plate and treated with different concentrations of glucose. After 48 hours of culture, the cells were collected, washed twice with cold PBS, and suspended to 1×10^6 cells/mL with a labeling buffer (1×), and 5 μL of AnnexinV-FITC and 5 μL of propidium iodide (PI) were added. The cells were mixed evenly and incubated at room temperature away from light for about 15 minutes. 300 μL of labeling buffer was added to each tube, and samples were loaded within 1 hour. Annexin-V and PI were used to label early and late apoptotic cells, respectively. […] PI is a kind of nucleic acid dye, cannot penetrate the whole cell membrane, but can penetrate the cell membrane of cells in the middle and late apoptosis and dead cells to stain the nucleus.
# PECs = assay: Apoptosis detection in cultured PECs under high glucose; type: cell-based; conditions: high glucose conditions (FIG. 6E)
# IL-6 [3] = assay: Western blot of IL-6 in high glucose-treated HUVECs; type: cell-based, human; conditions: western blot (FIG. 7D, 7E)
# TNF-α [4] = assay: Western blot of TNF-α in high glucose-treated HUVECs; type: cell-based, human; conditions: western blot (FIG. 7D, 7F)
# MCP-1 [5] = assay: Western blot of MCP-1 in high glucose-treated HUVECs; type: cell-based, human; conditions: western blot (FIG. 7D, 7G)
# TNF-α [6] = assay: ELISA of TNF-α in HUVEC culture supernatant; type: cell-based, human; conditions: HUVECs treated with 10 μM, ELISA (FIG. 8B)
# Description: (§1) HUVECs were inoculated into a 6-well plate and treated with glucose of different concentrations. After 48 hours, the supernatant was collected, and the expression of inflammatory cytokines TNF-α, MCP-1. and IL-6 in the supernatant was detected using TNF-α, MCP-1 and IL-6 ELISA kits according to instructions of the kits, respectively.
# MCP-1 [7] = assay: ELISA of MCP-1 in HUVEC culture supernatant; type: cell-based, human; conditions: HUVECs treated with 10 μM, ELISA (FIG. 8C)
# Description: as §1
# IL-6 [8] = assay: ELISA of IL-6 in HUVEC culture supernatant; type: cell-based, human; conditions: HUVECs treated with 10 μM, ELISA (FIG. 8A)
# Description: as §1
# [9] = Body weight of diabetic AVF rats; type: in vivo, rat; conditions: 1 mg/kg/day intraperitoneal, DM+Cyc vs DM group (FIG. 9)
# Description: (§2) Male SD rats which were aged 6-8 weeks and weighed 200-250 g were purchased from Beijing Vital River Laboratory Animal Technology Co., Ltd. In order to induce diabetes, the rats fasted overnight. Streptozotocin (STZ) (US, sigma, S0130-1G) (65 mg/kg) was dissolved in the citric acid buffer solution (0.1 M citric acid and 0.1 M sodium citrate) and single injected intraperitoneally into the abdominal cavity of the rats. The control group was administrated with an equal volume of the mediator-sodium citrate buffer (pH 4.5). Three days after the STZ injection, SD rats whose fasting-blood glucose (FPG) was greater than or equal to 300 mg/dL measured by Roche glucometer (Roche, Shanghai, China, LKBIO1500) were considered to have diabetes and used in follow-up experiments (FIG. 10).
# (§3) After the construction of the diabetic model. SD rats were used to construct the AVF model. Rats were anesthetized by intraperitoneal injection of chloral hydrate (0.3 mL/100 g) and placed on the operating table during the operation. […]
# (§4) Weight and blood glucose of rats were measured every week during the experiment, peripheral blood was extracted at specific time points (0, 1, and 14 weeks) for analysis, and AVF tissues were isolated at the end of the experiment for further analysis.
# [10] = Blood glucose level of diabetic AVF rats; type: in vivo, rat; conditions: 1 mg/kg/day intraperitoneal, DM+Cyc vs DM group (FIG. 10)
# Description: as §2, §3, §4
# diabetic AVF rats [11] = assay: Ultrasonic examination of AVF in diabetic AVF rats; type: in vivo, rat; conditions: 1 mg/kg/day i.p.
# Description: as §2
# After the construction of the diabetic model. SD rats were used to construct the AVF model. Rats were anesthetized by intraperitoneal injection of chloral hydrate (0.3 mL/100 g) and placed on the operating table during the operation. The iliac vascular area was exposed by cutting a 3 cm incision along the left inguinal fold and retracting abdominal muscle tissue and other soft tissue. The operation was carried out under a microscope, and the iliac artery and vein were separated from the surrounding fascia and nerves.
# diabetic AVF rats [12] = assay: Hematoxylin-eosin staining of vascular tissue at AVF anastomosis; type: in vivo, rat; conditions: HE staining at AVF anastomosis, 1 mg/kg/day i.p., vs DM group (FIG. 12)
# Description: (§5) The paraffin-embedded tissue sections were stained with HE. Blood vessel tissue samples were dewaxed and rehydrated, and antigen retrieval and IHC staining were carried out. Tissue sections were blocked at room temperature for at least 1 hour and incubated overnight with antibodies of TNF-α, MCP1, IL-6, and SMO at 4° C. After careful cleaning, tissue sections were detected using a DAB-HRP method and observed with a microscope. Quantitative analysis was carried out according to the percentage of […] cells and the staining intensity.
# as §2
# After the construction of the diabetic model. […]
# SMO [13] = assay: Immunohistochemistry of SMO in vascular tissue around the fistula; type: in vivo, rat; conditions: 1 mg/kg/day i.p., vs DM group (FIG. 13)
# Description: as §5
# TNF-α [14] = assay: Immunohistochemistry of TNF-α in vascular tissue around the fistula; type: in vivo, rat; conditions: 1 mg/kg/day i.p., vs DM group (FIG. 13)
# Description: as §5
# MCP-1 [15] = assay: Immunohistochemistry of MCP-1 in vascular tissue around the fistula; type: in vivo, rat; conditions: 1 mg/kg/day i.p., vs DM group (FIG. 13)
# Description: as §5
# IL-6 [16] = assay: Immunohistochemistry of IL-6 in vascular tissue around the fistula; type: in vivo, rat; conditions: 1 mg/kg/day i.p., vs DM group (FIG. 13)
# Description: as §5
# Cleaved caspase 3 = assay: Immunohistochemistry of Cleaved caspase 3 in vascular tissue around the fistula; type: in vivo, rat; conditions: 1 mg/kg/day i.p., vs DM group (FIG. 13)
# TNF-α [17] = assay: ELISA of TNF-α in peripheral blood plasma of rats; type: in vivo, rat; conditions: 1 mg/kg/day i.p., vs DM group (FIG. 14A)
# Description: (§6) Peripheral blood samples of rats were collected, and plasma was separated. The concentration of cytokines (TNF-α, MCP-1, and IL-6) in plasma was determined using an ELISA kit (Jiangsu Enzyme Immune Industrial Co., Ltd., China).
# as §4
# MCP-1 [18] = assay: ELISA of MCP-1 in peripheral blood plasma of rats; type: in vivo, rat; conditions: 1 mg/kg/day i.p., vs DM group (FIG. 14B)
# Description: as §6, §4
# IL-6 [19] = assay: ELISA of IL-6 in peripheral blood plasma of rats; type: in vivo, rat; conditions: 1 mg/kg/day i.p., vs DM group (FIG. 14C)
# Description: as §6, §4
# SMO [20] = assay: Western blot of SMO in vascular endothelial cells from rat AVF tissue; type: in vivo; conditions: vascular endothelial cells isolated from rat AVF tissue, 1 mg/kg/day i.p. (FIG. 14D, 14H)
# Description: (§7) After the experiment was finished, the AVF tissues of the rats were collected and digested with enzymes to separate vascular endothelial cells. The vascular endothelial cells were lysed with the mixture liquid of RIPA lysis buffer and the phosphatase inhibitor and centrifuged to collect the supernatant. The protein concentration was measured, and the protein samples were prepared. Electrophoresis was carried out, and the membrane was transferred at 260 mA for 60 minutes. The transferred PVDF membranes were soaked with TBST buffer containing 5% skimmed milk powder, blocked at room temperature at a rotation rate of 60 rpm for 1 hour, and gently washed with TBST buffer 3 times, each time lasting 8-10 minutes. The corresponding diluents of primary antibodies (SMO, Cascpase3, TNF-α, MCP-1, and IL-6) were added, where the dilution ratio was determined according to the requirements of each antibody, and the PVDF membranes were incubated overnight in a shaker at 4° C. and cleaned with TBST buffer 3 times the next day, each time lasting 8-10 minutes. […] Development: Luminescent liquid A and liquid B were mixed according to the ratio of 1:1, the residual water on the PVDF membranes was gently absorbed with filter papers, the mixed luminescent liquid was uniformly dropped on the PVDF membranes, and the western blot results were analyzed on a gel imager.
# TNF-α [21] = assay: Western blot of TNF-α in vascular endothelial cells from rat AVF tissue; type: in vivo; conditions: vascular endothelial cells isolated from rat AVF tissue, 1 mg/kg/day i.p. (FIG. 14D, 14F)
# Description: as §7
# MCP-1 [22] = assay: Western blot of MCP-1 in vascular endothelial cells from rat AVF tissue; type: in vivo; conditions: vascular endothelial cells isolated from rat AVF tissue, 1 mg/kg/day i.p. (FIG. 14D, 14G)
# Description: as §7
# IL-6 [23] = assay: Western blot of IL-6 in vascular endothelial cells from rat AVF tissue; type: in vivo; conditions: vascular endothelial cells isolated from rat AVF tissue, 1 mg/kg/day i.p. (FIG. 14D, 14E)
# Description: as §7
# SMO [24] = conditions: HUVECs, high glucose; 10 μM; compared with Vis and Gla at the same dosage (FIG. 5A)
# Description: (§8) The total RNA was extracted from HUVECs by the Trizol method. The cDNA was synthesized using Evo M-MLV RT Premix premix for qPCR. Fluorescence quantitative PCR was carried out using gene-specific primers (Table 1) and SYBR® Green Premix Pro Taq HS qPCR Kit. The relative mRNA expression quantity was calculated by 2^−ΔΔCT method.
# IL-6 [25] = conditions: HUVECs
# Description: as §8
# TNF-α [26] = conditions: HUVECs
# Description: as §8
# MCP-1 [27] = conditions: HUVECs
# Description: as §8
smiles,measurement,setting,value
"CC1=C2C[C@H]3[C@@H](CC=C4C[C@@H](O)CC[C@@]43C)[C@@H]2CC[C@]12O[C@@H]1C[C@H](C)CN[C@H]1[C@H]2C [Cyc, Cyclopamine]",LDH in HUVECs,HUVECs [1],reduced
same,apoptosis of HUVECs,HUVECs [2],significantly reduced
same,apoptosis of cultured PECs,PECs,significantly reduced
same,expression of IL-6 at protein level,IL-6 [3],inhibit
same,expression of TNF-α at protein level,TNF-α [4],inhibit
same,expression of MCP-1 at protein level,MCP-1 [5],inhibit
same,level of TNF-α in cell culture supernatant,TNF-α [6],decreased
same,level of MCP-1 in cell culture supernatant,MCP-1 [7],decreased
same,level of IL-6 in cell culture supernatant,IL-6 [8],decreased
same,body weight,[9],remained stable over time
same,blood glucose level,[10],lower than that of the DM group
same,blood flow,"diabetic AVF rats [11]; color Doppler ultrasound near AVF anastomotic stoma, DM+Cyc vs untreated DM group (FIG. 11A)",faster
same,diameter of blood vessels in the fistula,"diabetic AVF rats [11]; ultrasound at AVF anastomosis, DM+Cyc vs untreated group (FIG. 11B)",increased significantly
same,intima of blood vessels,diabetic AVF rats [12],improved
same,lumen of blood vessels,diabetic AVF rats [12],significantly enlarged
same,expression level of SMO (immunohistochemistry),SMO [13],significantly inhibited
same,expression level of TNF-α (immunohistochemistry),TNF-α [14],significantly inhibited
same,expression level of MCP-1 (immunohistochemistry),MCP-1 [15],significantly inhibited
same,expression level of IL-6 (immunohistochemistry),IL-6 [16],significantly inhibited
same,expression level of Cleaved caspase 3 (immunohistochemistry),Cleaved caspase 3,significantly inhibited
same,TNF-α in plasma,TNF-α [17],significantly reduced
same,MCP-1 in plasma,MCP-1 [18],significantly reduced
same,IL-6 in plasma,IL-6 [19],significantly reduced
same,expression level of SMO (western blot),SMO [20],significantly reduced
same,expression level of TNF-α (western blot),TNF-α [21],significantly reduced
same,expression level of MCP-1 (western blot),MCP-1 [22],significantly reduced
same,expression level of IL-6 (western blot),IL-6 [23],significantly reduced
same,inhibiting the expression of SMO,SMO [24],best effect
same,expression of IL-6 at mRNA level,IL-6 [25]; glucose 5.5-40 mM (FIG. 7A),inhibit
same,inhibiting the expression of IL-6,"IL-6 [25]; high glucose, 10 μM, compared with Vis and Gla at the same dosage (FIG. 5C)",best effect
same,expression of TNF-α at mRNA level,TNF-α [26]; glucose 5.5-40 mM (FIG. 7B),inhibit
same,inhibiting the expression of TNF-α,"TNF-α [26]; high glucose, 10 μM, compared with Vis and Gla at the same dosage (FIG. 5D)",best effect
same,expression of MCP-1 at mRNA level,MCP-1 [27]; glucose 5.5-40 mM (FIG. 7C),inhibit
same,inhibiting the expression of MCP-1,"MCP-1 [27]; high glucose, 10 μM, compared with Vis and Gla at the same dosage (FIG. 5E)",best effect
